The record followed here is patent US10640518B2, “Condensed heterocyclic compounds and pesticides” (Nissan Chemical Corporation, priority 2016, dated 2020).

Holding throughout (type): in vivo
Test [1] deals with Plutella xylostella. Briefly: Insecticidal test on Plutella xylostella (cabbage leaf soaking). Particulars: 144 h, 500 ppm solution, cabbage leaves soaked, 3rd-instar larvae, 6 days after, 25° C. The procedure:
Test Example 2: Insecticidal Test on Plutella xylostella
(§1) 10% emulsifiable concentrates (or 10% wettable powders) of compounds of the present invention were diluted with water containing a spreader to obtain 500 ppm solutions. Leaves of cabbage were soaked in the solutions for about 10 seconds. After the soaking, the leaves were dried in air and placed in dishes. In each dish, five 3rd-instar larvae of Plutella xylostella were released, and the dishes were covered with lids and placed in an incubator at 25° C. 6 days after, dead insects in the dishes were counted, and the mortality was calculated by using the same equation as in Test Example 1. The test was carried out in duplicate.

Test [2] has as its system Spodoptera litura. Briefly: Insecticidal test on Spodoptera litura (cabbage leaf soaking). Particulars: 144 h, 500 ppm solution, cabbage leaves soaked, 3rd-instar larvae, 6 days after, 25° C. The method, then: Test Example 3: Insecticidal Test on Spodoptera litura
as §1, with “Spodoptera litura” for “Plutella xylostella”

The subject of test [3] is Ctenocephalides felis. Put plainly: Test on the effect on Ctenocephalides felis (thin film contact). Conditions: 96 h, application dose 10 μg/cm^2, adults, 4 days after the release, 25° C. The method, then: Test Example 11: Test on the Effect on Ctenocephalides felis
(§2) 3.5 mg of compounds of the present invention were diluted with 3.5 ml of acetone to obtain 1,000 ppm solutions. 350 μl of the solutions were applied to the bottoms and the side walls of glass containers with an inner wall surface area of 35 cm^2, and acetone was volatilized to prepare thin films of the compounds on the inner walls of the glass containers. Since the inner wall surface area of each glass container was 35 cm^2, the application dose was 10 μg/cm^2.
To each glass container, five adults (male and female) of Ctenocephalides felis were released, and the containers were covered with lids and placed in an incubator at 25° C. 4 days after the release of the fleas, dead fleas were counted, and the mortality was calculated by using the same equation as in Test Example 1.

The test system of test [4] is Aedes albopictus. Put plainly: Insecticidal test on Aedes albopictus (larvae in well plate). Conditions: final concentration 10 ppm, larvae one day after hatching, 3 days after, 25° C. The procedure:
Test Example 17: Insecticidal Test on Aedes albopictus
2 mg of compounds of the present invention were dissolved in 0.2 ml of dimethyl sulfoxide to prepare 1% (w/v) dimethyl sulfoxide solutions. 0.01 ml of the solutions were mixed with 0.99 ml of pure water to prepare 0.01% (w/v) solutions. To 0.3 ml plastic plates (Cellstar 96 well culture plates, manufactured by Greiner Bio-One International GmbH) as test plates, 0.09 ml of distilled water containing 30 larvae of Aedes albopictus one day after hatching was dropped, and 0.01 ml of the 0.01% (w/v) solutions were dropped so that the final concentration would be 10 ppm. The plates were covered with lids and placed in an incubator at 25° C. 3 days after, dead larvae were counted, and the mortality was calculated by using the same equation as in Test Example 1.

In test [5] the test system is Nilaparvata lugens. Put plainly: Insecticidal test on Nilaparvata lugens (rice sheath soaking). Conditions: 144 h, 500 ppm solution, rice sheaths soaked, 3rd-instar larvae, 6 days after, 25° C. The method, then: Test Example 1: Insecticidal Test on Nilaparvata lugens
10% emulsifiable concentrates (or 10% wettable powders) of compounds of the present invention were diluted with water containing a spreader to obtain 500 ppm solutions. Rice sheaths were soaked in the solutions for about 10 seconds. After the soaking, the rice sheaths were dried in air and put in test tubes. In each tube, five 3rd-instar larvae of Nilaparvata luqgens were released, and the tubes were capped with sponge and placed in an incubator at 25° C. 6 days after, dead insects in the test tubes were counted, and the mortality was calculated in accordance with the following equation. The test was carried out in duplicate. Mortality (%)=(the number of dead insects/the number of released insects)×100)

Test [6] has as its system Myzus persicae. Briefly: Insecticidal test on Myzus persicae (spray). Particulars: 144 h, 500 ppm solution sprayed (2.5 mg/cm^2), apterous adults on cabbage leaves, 6 days after, 25° C. The method, then: Test Example 5: Insecticidal Test on Myzus persicae
Wet absorbent cotton was laid on glass dishes having an inner diameter of 3 cm, and covered with leaves of cabbage cut into circles having a diameter of 3 cm, and 4 apterous adults of Myzus persicae were released. After a day, 10% emulsifiable concentrates (or 10% wettable powders) of compounds of the present invention were diluted with water containing a spreader to obtain 500 ppm solutions. The solutions were sprayed from a rotary spray tower (2.5 mg/cm^2), and the dishes were covered with lids and placed in an incubator at 25° C. 6 days after, dead insects were counted, and the mortality was calculated by using the same equation as in Test Example 1. The test was carried out in duplicate.

In test [7] the test system is Nilaparvata lugens. Put plainly: Systemic insecticidal test on Nilaparvata lugens (root dipping). Conditions: 20 ppm solution, rice seedling roots dipped 7 days, 3rd-instar larvae, 6 days after the release. The procedure: Test Example 7: Systemic Insecticidal Test on Nilaparvata lugens
10% emulsifiable concentrates of compounds of the present invention were diluted with tap water to obtain 20 ppm solutions, and root of rice plug seedlings (at the 2-leaf stage) were dipped in the solutions. 7 days after, the rice seedlings were picked and put in test tubes, and in each tube, five 3rd-instar larvae of Nilaparvata luqens were released, and the tubes were capped with sponge and placed in an incubator at 25° C. 6 days after the release of the insects, dead insects were counted, the and the mortality was calculated by using the same equation as in Test Example 1. The test was carried out in duplicate.

Test [8] concerns Reticulitermes speratus. Put plainly: Insecticidal test on Reticulitermes speratus (treated river sand). Particulars: 240 h, 0.5 ml of 100 ppm solution on 10 g river sand, adults, 10 days after, 25° C. The method, then: Test Example 15: Insecticidal Test on Reticulitermes speratus
10% emulsifiable concentrates of the compounds of the present invention were prepared. The emulsifiable concentrates were diluted with water to prepare 100 ppm solutions. 0.5 ml of the solutions were dropped on 10 g of river sand and mixed. In dishes having an inner diameter of 4 cm, 1% agar (2 cm square) was laid, and the treated river sand and a filter paper piece as bait were placed. Adults of Reticulitermes speratus were released in the dishes, and the dishes were placed in an incubator at 25° C. 10 days after, dead insects in the dishes were counted, and the mortality was calculated by using the same equation as in Test Example 1. The test was carried out in duplicate.

Test [9] deals with Rhipicephalus sanguineus. Put plainly: Test on the effect on Rhipicephalus sanguineus (thin film contact). Conditions: 96 h, application dose 10 μg/cm^2, protonymphs, 4 days after the release, 25° C. The procedure:
Test Example 10: Test on the Effect on Rhipicephalus sanguineus
as §2
To each glass container, five protonymphs (male and female) of Rhipicephalus sanguineus were released, and the containers were covered with lids and placed in an incubator at 25° C. 4 days after the release of the ticks, dead ticks were counted, and the mortality was calculated by using the same equation as in Test Example 1.

Test [10] concerns Culex pipiens molestus. Put plainly: Insecticidal test on Culex pipiens molestus (larvae in well plate). Conditions: 24 h. The procedure: Test Example 16: Insecticidal Test on Culex pipiens molestus
2 mg of compounds of the present invention were dissolved in 0.2 ml of dimethyl sulfoxide to prepare 1% (w/v) dimethyl sulfoxide solutions. The solutions were diluted with distilled water by a factor of 100 to prepare 100 ppm solutions. To 1.9 ml plastic plates (Cellstar 24 well plate, manufactured by Greiner Bio-One International GmbH) as test plates, 0.7 ml of water containing 10 to 30 larvae of Culex pipiens molestus one day after hatching, and 0.2 ml of an aqueous suspension of aquarium fish food (TetraMin manufactured by Spectrum Brands Japan) as bait, were dropped. 0.1 ml of the 100 ppm solutions were dropped, and the plates were placed in an incubator at 25° C. 1 day after, dead larvae were counted, and the mortality was calculated by using the same equation as in Test Example 1. The test was carried out in duplicate.

Test [11] relates to Frankliniella occidentalis. Put plainly: Insecticidal activity on Frankliniella occidentalis (spray on kidney bean leaves). Conditions: 48 h, 500 ppm solution sprayed (2.5 mg/cm^2), larvae on kidney bean leaves, 2 days after. The method, then:
Test Example 4: Insecticidal Activity on Frankliniella occidentalis
In styrol cups having an inner diameter of 7 cm, wet filter paper was laid, kidney bean leaves cut into a 3 cm square were laid on the paper, and each leaf was inoculated with 20 larvae of Frankliniella occidentalis. 10% emulsifiable concentrates (or 10% wettable powders) of compounds of the present invention were diluted with water containing a spreader to obtain 500 ppm solutions. 2.5 ml of the solutions were sprayed from a rotary spray tower into the styrol cups (2.5 mg/cm^2). 2 days after, dead insects were counted, and the insect damage degree on kidney bean leaves was examined. The mortality was calculated by using the same equation as in Test Example 1. The insect damage degree was evaluated from the proportion of the area with insect damage on the leaves, as follows. 1: 0 to 20% insect damage, 2: 20 to 50% insect damage, 3: 50 to 70% insect damage, and 4: 70% or higher insect damage. The test was carried out in duplicate.

On to `CCS(=O)(=O)c1c(-c2nc3cc(C(F)(F)F)cnc3n2C)nn2cc(-n3ccc(C(F)(F)F)n3)ccc12` [1-1-003a, 2-[3-(ethylsulfonyl)-6-(3-(trifluoromethyl)-1H-pyrazol-1-yl)pyrazolo[1,5-a]pyridin-2-yl]-3-methyl-6-(trifluoromethyl)-3H-imidazo[4,5-b]pyridine], for which the mortality at 500 ppm in test [1] and in test [2] was at least 90% each time. Besides, the mortality (as a rule, the share of the test organisms that died) at 10 µg/cm2 in test [3] was at least 50%. The compound also had a mortality at 10 ppm in test [4] of at least 70%.

As to `CCS(=O)(=O)c1c2ccc(C(F)(F)F)cc2nn1-c1nc2cc(C(F)(F)F)cnc2n1C` [1-10-001a, 2-[3-(ethylsulfonyl)-6-(trifluoromethyl)-2H-indazol-2-yl]-3-methyl-6-(trifluoromethyl)-3H-imidazo[4,5-b]pyridine], the mortality at 500 ppm in test [5], in test [1], in [2] and in [6] was at least 90% in each case. Besides, the mortality at 20 ppm in test [7] was at least 90%. The compound also gave a mortality at 10 µg/cm2 in test [3] of at least 50%. Besides, the mortality at 100 ppm in [8] was at least 70%.

Consider `CCS(=O)(=O)c1c(-c2cn3nc(C(F)(F)C(F)(F)F)sc3n2)nn2ccc(C(F)(F)F)cc12` [1-5-001a, 6-[3-(ethylsulfonyl)-5-(trifluoromethyl)pyrazolo[1,5-a]pyridin-2-yl]-2-(perfluoroethyl)imidazo[2,1-b][1,3,4]thiadiazole], for which the mortality at 500 ppm in test [1] and in test [2] was at least 90% in each case. For the same compound, the mortality at 10 µg/cm2 in [9] and in [3] was at least 50% throughout. In addition, the mortality at 10 ppm in [4] is at least 70%.

Turning to `CCS(=O)(=O)c1c(-c2nc3cc(C(F)(F)F)cnc3n2C)nn2cc(Cl)ccc12` [1-1-001a, 2-[6-chloro-3-(ethylsulfonyl)pyrazolo[1,5-a]pyridin-2-yl]-3-methyl-6-(trifluoromethyl)-3H-imidazo[4,5-b]pyridine], the mortality at 500 ppm in test [1], in test [2] and in test [6] was at least 90% throughout. The same compound registered a mortality at 20 ppm in test [7] of at least 90%. The mortality at 10 µg/cm2 in [9] and in test [3] was at least 50% each time. Also, the results for the mortality at 100 ppm in test [8] and in test [10] were at least 70% and 100%, respectively. The same compound registered a mortality at 10 ppm in [4] of at least 70%.

For the compound `CCS(=O)(=O)c1c(-c2cn3cnc(C(F)(F)C(F)(F)F)cc3n2)nn2ccc(C(F)(F)F)cc12` [1-3-001a, 2-[3-(ethylsulfonyl)-5-(trifluoromethyl)pyrazolo[1,5-a]pyridin-2-yl]-7-(perfluoroethyl)imidazo[1,2-c]pyrimidine], the mortality at 500 ppm in test [1] was at least 90%; in test [2], at least 90%; in test [11], at least 50%. Moreover, the mortality at 10 µg/cm2 in test [9] and in test [3] was at least 50% each time. In test [4], this compound had a mortality at 10 ppm of at least 70%.
